Data: patent publication US10087144B2, “Agents for use in the treatment of cardiovascular and inflammatory diseases structurally based on 4(1 H)-quinolone” (UCL Business PLC, priority 2015, dated 2018)
Where two headings read alike, the source gives them in different places.

Experiments:
[1] = system: rat mesenteric artery smooth muscle cells; test: Ca2+ flux in response to Angiotensin II in isolated rat mesenteric artery smooth muscle cells (FLIPR); format: cell-based; conditions: for inhibition at 1 µM / inhibition at 10 µM: Rattus norvegicus; for inhibition at 1 µM: read-out: % inhibition 1 μM; for inhibition at 10 µM: read-out: % inhibition 10 μM
Procedure: Mesenteric artery smooth muscle cells were isolated from male Sprague-Dawley rats (200-250 g). Mesenteric arteries were dissected, cleared of extraneous tissue and incubated in an enzyme solution containing collagenase type I (1 mg/ml), soybean trypsin inhibitor (0.25 mg/ml), bovine albumin (1 mg/ml), CaCl2 (0.2 mM), 100 U/ml penicillin (100 U/ml) and streptomycin (100 μg/ml) in a humidified incubator with 5% CO2 in air. The enzyme solution was replenished at 30 min intervals and cells were pelleted by centrifugation (200 g, 5 min) and differentially plated (×2) for 15 min in Dulbecco's Modified Eagle's Medium (DMEM) supplemented with penicillin (100 U/ml), streptomycin (100 μg/ml), L-Glutamine (2 mM) and 10% heat inactivated New Zealand foetal calf serum. Cells were passaged by trypsinisation and viability determined by trypan blue exclusion.
Measurements of Ca^2+ flux in response to Angiotensin II were conducted using a Fluorescent Imaging Plate Reader (FLIPR; Molecular Devices). Cells were plated at a density of 10,000 cells/well into black, clear-bottomed 96-well plates in DMEM supplemented with penicillin (100 U/ml), streptomycin (100 μg/ml), L-Glutamine (2 mM) and 10% heat inactivated New Zealand foetal calf serum. 24 hrs later the cells were incubated with Fluo-3-AM (4 μM) for 60 min at 37° C. Once dye-loaded, the cells were washed thoroughly with the proprietary assay buffer to remove any unincorporated dye. The cells were then incubated with varying concentrations of a number of representative NPR-C agonist molecules of the invention, C-type natriuretic peptide or vehicle (DMSO) and placed into the FLIPR. After 15 mins, Angiotensin II (100 nM) was automatically dispensed into each well and the fluorescence signal followed for 5 mins. Potency was determined by comparison of the peak fluorescence in each test well (run in triplicate) with that of the control (Angiotensin II alone). Background fluorescence (assay buffer only) was subtracted from all values.

rat mesenteric arteries = test: Vasoreactivity in rat mesenteric arteries in vitro (relaxation of U46619-contracted vessels, tension myograph); conditions: for EC50: vasorelaxation, calculated from concentration-response curves
Procedure: Male rats (Sprague-Dawley; 200-250 g) were stunned and killed by cervical dislocation. The mesentery was removed and third-order arteries mounted in an automated tension myograph (Danish Myotechnology). After an equilibration period of 45 min, vessels were normalized and diameter determined. Following normalization, each vessel was contracted repeatedly with the thromboxane A2-mimetic 9,11-dideoxy-11^α,9^α-epoxymethano-prostaglandin F2α (U46619; 1 μM) until the response was reproducible. The vessels were then washed to restore basal tone before contracting to approximately 50% of the maximum U46619-induced response. Once a stable response to U46619 was achieved, cumulative concentration-response curves were constructed with a variety of NPR-C agonists of the invention at varying concentrations (0.001-30 μM), or vehicle (DMSO). In some studies, concentration-response curves to NPR-C agonists were conducted in the presence of the NPR-C antagonist M372049 (10 μM). Only one curve to any one agonist was constructed in any single tissue.

[2] = 1 μM compound, inhibition of Angiotensin II (100 nM) Ca2+ flux peak fluorescence
[3] = 10 μM compound, inhibition of Angiotensin II (100 nM) Ca2+ flux peak fluorescence
[4] = 1 μM, U46619-contracted third-order arteries
[5] = 3 μM, U46619-contracted third-order arteries
[6] = 10 μM, U46619-contracted third-order arteries
[7] = 30 μM, U46619-contracted third-order arteries

Structure (SMILES): O=C(O)c1ccc2[nH]cc(C(=O)O)c(=O)c2c1 [Compound 111]
- % inhibition 1 μM [1, 2]: 100%
- % inhibition 10 μM [1, 3]: 100%

Structure (SMILES): CC(C)(C)OC(=O)[C@H](Cc1ccccc1)NC(=O)c1cn(Cc2ccccc2)c2ccc(Br)cc2c1=O [Compound 61, (S)-tert-butyl 2-(1-benzyl-6-bromo-4-oxo-1,4-dihydroquinoline-3-carboxamido)-3-phenylpropanoate]
- inhibition at 1 µM [1, 2]: 27%
- inhibition at 10 µM [1, 3]: 100%

Structure (SMILES): COc1ccc2[nH]cc(C(=O)O)c(=O)c2c1 [Compound 104]
- % inhibition 1 μM [1, 2]: 0%
- % inhibition 10 μM [1, 3]: 69%

Structure (SMILES): O=C(O)c1c[nH]c2ccc(Br)cc2c1=O [Compound 113]
- % inhibition 1 μM [1, 2]: 12%
- % inhibition 10 μM [1, 3]: 100%

Structure (SMILES): O=C(O)c1cn(C2CC2)c2cc(N3CCNCC3)c(F)cc2c1=O [Compound 134]
- % inhibition 1 μM [1, 2]: 55%
- % inhibition 10 μM [1, 3]: 80%

Structure (SMILES): O=C(O)c1cn(Cc2ccccc2)c2ccccc2c1=O [Compound 86, 1-benzyl-4-oxo-1,4-dihydroquinoline-3-carboxylic acid]
- inhibition at 1 µM [1, 2]: 0%
- inhibition at 10 µM [1, 3]: 45%

Structure (SMILES): O=C(O)c1ccc2c(=O)c(C(=O)O)c[nH]c2c1 [Compound 106]
- % inhibition 1 μM [1, 2]: 90%
- % inhibition 10 μM [1, 3]: 90%

Structure (SMILES): CC(C)[C@H](NC(=O)c1cn(Cc2ccccc2)c2ccc(Br)cc2c1=O)C(=O)OC(C)(C)C [Compound 63, (S)-tert-butyl 2-(1-benzyl-6-bromo-4-oxo-1,4-dihydroquinoline-3-carboxamido)-3-methylbutanoate]
- inhibition at 1 µM [1, 2]: 58%
- inhibition at 10 µM [1, 3]: 100%

Structure (SMILES): CC(C)C(NC(=O)c1cn(Cc2ccccc2)c2ccc(Br)cc2c1=O)C(=O)O (centres unmarked) [Compound 119]
- % relaxation 1 μM (rat mesenteric arteries; [4]): 2%
- % relaxation 3 μM (rat mesenteric arteries; [5]): 5%
- % relaxation 10 μM (rat mesenteric arteries; [6]): 26%
- % relaxation 30 μM (rat mesenteric arteries; [7]): 94%
- EC50 (rat mesenteric arteries): > 50 µM
- % inhibition 1 μM [1, 2]: 80%
- % inhibition 10 μM [1, 3]: 100%

Structure (SMILES): CC1CCc2c(N3CCC(O)CC3)c(F)c(N)c3c(=O)c(C(=O)O)cn1c23 (centres unmarked) [Compound 142]
- % inhibition 1 μM [1, 2]: 18%
- % inhibition 10 μM [1, 3]: 75%

Structure (SMILES): C[C@H](NC(=O)c1cn(Cc2ccccc2)c2ccc(Br)cc2c1=O)C(=O)OC(C)(C)C [Compound 59, (S)-tert-butyl 2-(1-benzyl-6-bromo-4-oxo-1,4-dihydroquinoline-3-carboxamido)propanoate]
- inhibition at 1 µM [1, 2]: 20%
- inhibition at 10 µM [1, 3]: 90%

Structure (SMILES): CC(C)(C)OC(=O)CNC(=O)c1cn(Cc2ccccc2)c2ccccc2c1=O [Compound 87, tert-butyl 2-(1-benzyl-4-oxo-1,4-dihydroquinoline-3-carboxamido)acetate]
- inhibition at 1 µM [1, 2]: 0%
- inhibition at 10 µM [1, 3]: 67%

Structure (SMILES): C[C@@H]1CN(c2c(F)c(N)c3c(=O)c(C(=O)O)cn(C4CC4)c3c2F)C[C@H](C)N1 [Compound 141]
- % inhibition 1 μM [1, 2]: 0%
- % inhibition 10 μM [1, 3]: 28%

Structure (SMILES): O=C(O)c1c[nH]c2ccc(F)cc2c1=O [Compound 114]
- % inhibition 1 μM [1, 2]: 100%
- % inhibition 10 μM [1, 3]: 100%

Structure (SMILES): CN(C)c1ccc2[nH]cc(C(=O)O)c(=O)c2c1 [Compound 108]
- % inhibition 1 μM [1, 2]: 0%
- % inhibition 10 μM [1, 3]: 90%

Structure (SMILES): Cc1cccc2c(=O)c(C(=O)O)c[nH]c12 [Compound 107]
- % inhibition 1 μM [1, 2]: 15%
- % inhibition 10 μM [1, 3]: 100%

Structure (SMILES): O=C(O)c1c[nH]c2ccccc2c1=O [Compound 57]
- % inhibition 1 μM [1, 2]: 0%
- % inhibition 10 μM [1, 3]: 35%

Structure (SMILES): O=C(O)c1c[nH]c2cc(C(F)(F)F)ccc2c1=O [Compound 110]
- % inhibition 1 μM [1, 2]: 70%
- % inhibition 10 μM [1, 3]: 100%

Structure (SMILES): O=C(O)CNC(=O)c1cn(Cc2ccccc2)c2ccccc2c1=O [Compound 117, 2-(1-benzyl-4-oxo-1,4-dihydroquinoline-3-carboxamido)acetic acid]
- inhibition at 1 µM (rat mesenteric arteries; Rattus norvegicus, 1 μM, U46619-contracted third-order arteries): 0%
- inhibition at 3 µM (rat mesenteric arteries; Rattus norvegicus, 3 μM, U46619-contracted third-order arteries): 0%
- inhibition at 10 µM (rat mesenteric arteries; Rattus norvegicus, 10 μM, U46619-contracted third-order arteries): 2%
- inhibition at 30 µM (rat mesenteric arteries; Rattus norvegicus, 30 μM, U46619-contracted third-order arteries): 42%
- EC50 (rat mesenteric arteries; Rattus norvegicus): > 50 µM
- inhibition at 1 µM [1, 2]: 87%
- inhibition at 10 µM [1, 3]: 100%

Structure (SMILES): CC(C)c1cccc2c(=O)c(C(=O)O)c[nH]c12 [Compound 103]
- % inhibition 1 μM [1, 2]: 0%
- % inhibition 10 μM [1, 3]: 65%

Structure (SMILES): Cc1ccc2[nH]cc(C(=O)O)c(=O)c2c1 [Compound 112]
- % inhibition 1 μM [1, 2]: 100%
- % inhibition 10 μM [1, 3]: 100%

Structure (SMILES): CCOC(=O)c1c[nH]c2ccccc2c1=O [Compound 84, ethyl 4-oxo-1,4-dihydroquinoline-3-carboxylate]
- inhibition at 1 µM [1]: 40%
- inhibition at 10 µM [1]: 45%

Structure (SMILES): CC(C)C(NC(=O)c1cn(Cc2ccccc2)c2ccccc2c1=O)C(=O)O (centres unmarked) [Compound 116]
- % relaxation 1 μM (rat mesenteric arteries; [4]): 4%
- % relaxation 3 μM (rat mesenteric arteries; [5]): 0%
- % relaxation 10 μM (rat mesenteric arteries; [6]): 0%
- % relaxation 30 μM (rat mesenteric arteries; [7]): 9%
- % inhibition 1 μM [1, 2]: 80%
- % inhibition 10 μM [1, 3]: 100%

Structure (SMILES): CC(C)(C)OC(=O)CNC(=O)c1cn(Cc2ccccc2)c2ccc(Br)cc2c1=O [Compound 62]
- % inhibition 1 μM [1, 2]: 0%
- % inhibition 10 μM [1, 3]: 50%

Structure (SMILES): O=C(O)c1cn(Cc2ccccc2)c2ccc(Br)cc2c1=O [Compound 27, 1-benzyl-6-bromo-4-oxo-1,4-dihydroquinoline-3-carboxylic acid]
- inhibition at 1 µM [1, 2]: 0%
- inhibition at 10 µM [1, 3]: 50%

Structure (SMILES): CC(C)C[C@H](NC(=O)c1cn(Cc2ccccc2)c2ccc(Br)cc2c1=O)C(=O)OC(C)(C)C [Compound 60, (S)-tert-butyl 2-(1-benzyl-6-bromo-4-oxo-1,4-dihydroquinoline-3-carboxamido)-4-methylpentanoate]
- inhibition at 1 µM [1, 2]: 0%
- inhibition at 10 µM [1, 3]: 80%

Structure (SMILES): CC1COc2c(N3CCN(C)CC3)c(F)cc3c(=O)c(C(=O)O)cn1c23 (centres unmarked) [Compound 138]
- % inhibition 1 μM [1, 2]: 11%
- % inhibition 10 μM [1, 3]: 40%

Structure (SMILES): O=C(O)c1c[nH]c2c(C(=O)O)cccc2c1=O [Compound 109]
- % inhibition 1 μM [1, 2]: 18%
- % inhibition 10 μM [1, 3]: 100%

Structure (SMILES): CN1CCN(c2cc3c(cc2F)c(=O)c(C(=O)O)cn3-c2ccc(F)cc2)CC1 [Compound 144]
- % inhibition 1 μM [1, 2]: 23%
- % inhibition 10 μM [1, 3]: 40%

Structure (SMILES): CC1COc2c(N3CCN(C)CC3)c(F)cc3c(=O)c(C(=O)O)cn1c23 (centres unmarked) [Compound 136]
- % inhibition 1 μM [1, 2]: 15%
- % inhibition 10 μM [1, 3]: 20%

Structure (SMILES): CC(=O)c1ccc2[nH]cc(C(=O)O)c(=O)c2c1 [Compound 105]
- % inhibition 1 μM [1, 2]: 80%
- % inhibition 10 μM [1, 3]: 100%

Structure (SMILES): CC(C)[C@H](NC(=O)c1cn(Cc2ccccc2)c2ccccc2c1=O)C(=O)OC(C)(C)C [Compound 88, (S)-tert-butyl 2-(1-benzyl-4-oxo-1,4-dihydroquinoline-3-carboxamido)-3-methylbutanoate]
- inhibition at 1 µM [1, 2]: 12%
- inhibition at 10 µM [1, 3]: 55%

Structure (SMILES): CCOC(=O)c1cn(Cc2ccccc2)c2ccccc2c1=O [Compound 85, ethyl 1-benzyl-4-oxo-1,4-dihydroquinoline-3-carboxylate]
- inhibition at 1 µM [1, 2]: 0%
- inhibition at 10 µM [1, 3]: 97%
